US20140128472A1, “TREATMENT AND PREVENTION OF DISEASES RELATED TO OXIDATIVE STRESS” (UNIVERSITY OF PÉCS, priority 2011, published 2014)
Entries after “also recorded” stand apart in the source; their conditions may differ.

Assays:
[1] = test system: 3T3-L1 adipocytes; experiment: Insulin-dependent uptake of deoxy-D-glucose 2-[1 2-3H(N)] into 3T3-L1 adipocytes; format: cell-based, mouse
Protocol: Primary cultures of mouse embryo fibroblasts (3T3-L1) were purchased from ATCC (Manassas, US). Early passages of 3T3-L1 fibroblasts were cultured in Dulbecco's modified Eagle medium ((DMEM, Invitrogen, CAT number: 41966-029; Sigma Aldrich CAT number: D6046) supplemented with 10% Fetal Bovine Serum (Gibco, CAT number: 16170-078), 100 U/ml penicillin and 0.1 mg/ml streptomycin (Gibco, CAT number: 15070-063) and 398 nM p-, m-, or o-Tyr. DMEM contained 25 or 5 mM glucose (depending on the experiment), L-glutamine, and pyruvate. Cells were grown in a humidified incubator at 37° C. and 5% CO2. Differentiation medium consisted of DMEM supplemented with 10% Fetal Bovine Serum (FBS, Gibco, Csertex, Budapest, Hungary, CAT number: 10106-169) (FBS), to which a cocktail was added containing […] isobuthylmethylxanthine (Sigma Aldrich, CAT number: I 5879), 0.17 nM insulin (Sigma Aldrich, CAT number: I 9278) and 250 nM dexamethasone (Sigma Aldrich, CAT number: 861871). From Day 4 onward, cells were maintained in DMEM/10% FBS containing […] insulin with a media change every other day until experimental treatments were initiated. For all treatments, cells were incubated overnight in serum-deprived medium after 90% of the cell population reached the adipocyte phenotype.
Cells were incubated in glucose free DMEM (Gibco, Csertex, Hungary) for 30 minutes, then treated with 2, 20, 200 or 400 nmol/l insulin for 100 minutes. Simultaneously 1 μCi/ml deoxy-D-glucose 2-[1 2-3H(N)] (3.7×104 Bq/ml) (Izotóp Intézet, Hungary) was added to the plates for 100 minutes Cells were scraped into the medium and centrifuged for 5 minutes at 1000 rpm. The sediment was dissolved in 70 μl of lysis-buffer and glucose uptake was assessed by scintillation counting measuring 30 μl of the sample with a Beckman LS 5000 TD counter in counts per minute (CPM) for five minutes each, using an average activity as the outcome. Samples were frozen overnight at −70° C. and protein concentration was measured using a Hitachi spectrophotometer. Results were normalized for protein content (Kaddai2009).

[2] = test system: thoracic and abdominal aorta, renal and femoral arteries; experiment: Insulin-induced relaxation of isolated arterial segments after oral tyrosine isomer supplementation of rats; format: in vivo, Sprague-Dawley rats; settings: for Insulin-induced relaxation, abdominal aorta, femoral (and renal) arteries / Insulin-induced relaxation, thoracic aorta: 1.76 mg/die per os; for Insulin-induced relaxation, abdominal aorta, femoral (and renal) arteries: compared to control; for Insulin-induced relaxation, thoracic aorta: compared to control/other groups; for Chronic effects on insulin-induced vasorelaxation after washout: 8th week, 4 weeks washout, all segments
Protocol: The experiments were carried out with the permission of the Hungarian Local Animal Experiment Committee. Shortly after weaning male CFY rats (a strain of the Sprague-Dawley rat) were placed in individual cages and held on regular diet. After two hours of fasting animals (4-5 week-old, 80-140 g) were loaded with 1.76 mg/die para-, meta- or ortho-tyrosine (p-, m-, o-tyr; Sigma-Aldrich, Inc., St. Louis, Mo. 63178, USA) dissolved in saline or vehicle (saline only) by gavage (per os) six days of the week. After one month treatment, animals were either anaesthetized with ether and were decapitated with a guillotine or p-, m-, o-tyr and vehicle supplementation was discontinued (“washout” period) and they were sacrificed […] (FIG. 8.A). The descending thoracic and abdominal aorta, renal and femoral arteries were removed and cleaned from connective tissue (FIG. 19). Sections were immediately hydrolyzed for HPLC analysis or were used for vascular reactivity studies.
(§1) In further tyrosine isomer incorporation studies when effects of chronic oral p-Tyr and o-Tyr supplementation of rats on the o-Tyr level and insulin-induced relaxation of isolated arterial segments were studied, 18 Male Sprague-Dawley rats (5-6 week-old) were used. Rats were orally supplied with either 1.76 mg/die of p-Tyr or o-Tyr or vehicle during six days per week for four weeks. […] At the end of four-week treatment, HPLC and vasomotor studies were performed. In another group of rats, p-Tyr/o-Tyr supplementation was discontinued for four weeks (“washout” period), after which they were sacrificed for HPLC and vasomotor studies.
The modified method of Fésüs et al. (Fésüs2007) was used. The distal parts of the vessels were dissected into 2 mm long segments in ice-cold Krebs buffer and rings were mounted on two stainless steel wires (40 μm in diameter) in a Danish Multimyograph Model 610M (DMT-USA Inc., Atlanta, Ga., USA). Vessels were bathed in Krebs buffer (containing 119 mM NaCl, 4.7 mM KCl, 1.2 mM KH2PO4, 25 mM NaHCO3, 1.2 mM Mg2SO4, 11.1 mM glucose, 1.6 mM CaCl2*2H2O, pH 7.4) and gassed with 5% CO2 and 95% O2 at 37° C. The resting tension/internal circumference relationship for each vessel was determined and then the internal circumference was set to 0.9×L100, where L100 is the internal circumference the vessel would have had in vivo when relaxed under a transmural pressure of 100 mmHg After this normalization procedure vessels were allowed to stabilize for 30 min, and then isometric tension was continuously recorded. Rings were preconstricted with 100 nM epinephrine. After reaching a stabile contraction plateau, relaxant responses to increasing doses of insulin were assessed. The rate of relaxation was expressed as percentage of the contraction evoked by epinephrine (100%). Para-, meta-, ortho-tyrosine or vehicle were added to the vessel chamber 10 minutes before the addition of epinephrine and 30 minutes before the addition of insulin.

[3] = Body weight of rats during four-week tyrosine isomer supplementation; format: in vivo, Sprague-Dawley rats; settings: four weeks, 1.76 mg/die, vs vehicle
Protocol: as §1

[4] = cells grown 11 days on medium with the tyrosine isomer + 5 mM glucose, insulin 2, 20, 200, 400 nM

Row | SMILES | Insulin-induced glucose uptake at equimolar concentrations with p-Tyr ([1]; 72-72 mg/l m-Tyr or o-Tyr and p-Tyr, insulin 400 nM) | Insulin-dependent deoxy-D-glucose uptake [1, 4] | Baseline glucose uptake ([1]; cells grown on m-Tyr- or o-Tyr-containing medium (72 mg/l) for different time periods, no insulin) | Insulin-induced glucose uptake, time dependence ([1]; m-Tyr or o-Tyr 72 mg/l for different time periods, insulin 400 nM, time-dependent manner) | Ability to inhibit insulin-induced glucose uptake, dependence on concentration ([1]; m-Tyr or o-Tyr 2.25-72 mg/l with p-Tyr 72 mg/l, insulin 400 nM) | Insulin-induced relaxation, abdominal aorta, femoral (and renal) arteries ([2]; 4th week) | Insulin-induced relaxation, thoracic aorta ([2]; 4th week) | Insulin-induced relaxation, all three isolated segments compared to the p-Tyr-treated group ([2]; 4th week, thoracic and abdominal aorta, femoral artery) | Chronic effects on insulin-induced vasorelaxation after washout [2] | Body weight [3] | Insulin-dependent deoxy-D-glucose uptake ([1]; cells grown 11 days on p-Tyr + high glucose (25 mM)) | Increase in glucose uptake by insulin ([1]; cells grown on p-Tyr and normal glucose, insulin 400 nM) | Excess concentration of p-Tyr over m-Tyr or o-Tyr in the media needed to compete ([1]; read from FIG. 3, insulin 400 nM)
1 | N[C@@H](Cc1ccccc1O)C(=O)O [o-Tyr, Ortho-L-tyrosine] | fully inhibit insulin-induced glucose uptake; also recorded: insulin had no effect on glucose uptake at all | no insulin effect could be verified | did not show a marked change | blocked | concentration-dependent | significantly diminished response to insulin | no significant difference; also recorded: did not observe any significant further decline of response to insulin | markedly attenuated insulin-induced relaxations | completely abolished | no difference between the groups |  |  | 
2 | N[C@@H](Cc1ccc(O)cc1)C(=O)O [p-Tyr, Para-L-tyrosine] |  | increasing concentrations of insulin lead to an increase in deoxy-D-glucose uptake |  |  |  | could not detect significant difference | increased insulin-induced relaxations only in the thoracic aorta; also recorded: increased relaxation in response to insulin; also recorded: higher vasorelaxation response to insulin; also recorded: greater vasorelaxation |  | completely abolished | no difference between the groups | insulin failed to increase glucose uptake | approx. 2 fold | 8-32 fold
